From paper PMC6073756, “Allicin Bioavailability and Bioequivalence from Garlic Supplements and Garlic Foods” (Nutrients, 2018)

Tests used:
[1] = Allicin bioavailability or bioequivalence bioassay: 32-h breath allyl methyl sulfide (AMS) concentration curve after consumption; format: in vivo, human; conditions: two tests, same person
[2] = parameters: method as in PMID 25681129; conditions: cited from earlier work
[3] = parameters: method as in doi:10.1055/s-2006-959976; conditions: added to whole blood; cited from earlier work
[4] = cited from earlier work

For `C=CC[S+]([O-])C[C@H](N)C(=O)O` (mixture of isomers) [L(±)-alliin], the “Differences in Tmax, RF2, or RRF2 versus natural L(+)-alliin” value [1] was “No significant differences”.
In the case of `C=CCSCC(N)C(=O)O` (stereo not shown) [S-allyl-cysteine, S-allylcysteine], the “Administered dose accounted for among the urinary metabolites” value [2] is listed as 13%, the “Dose in urine as SAC plus N-acetyl-SAC” value [2] is listed as 1% and the “Dose in urine as alliin plus N-acetyl-alliin” value [2] is listed as 12%. For the same compound, the Unknown metabolites [2] was 87%.
In the case of `C=CCS[S+]([O-])CC=C` (stereo not shown) [allicin, diallyl thiosulfinate], the “Half-life of metabolism to allyl mercaptan” value [3] is given as less than 1 min and the “Share of the allicin consumed accounted for by breath AMS” value [4] is given as “at least 90%”.
